This note sets out measurements from ChEMBL document CHEMBL1125944, “Imidazo[1,2-a]piperazines as mechanistic inhibitors of serine proteinases” (Bioorg Med Chem Lett, 1991).

SMILES strings stand for the structures.

Broadly, the IC50 is the point on the concentration scale where inhibition reaches its midpoint. Low readings indicate inhibition by little substance, high ones a need for much substance.

The assay has as its target T1, Neutrophil elastase (Homo sapiens, UniProt P08246).
T1 sequence (P08246 whole entry): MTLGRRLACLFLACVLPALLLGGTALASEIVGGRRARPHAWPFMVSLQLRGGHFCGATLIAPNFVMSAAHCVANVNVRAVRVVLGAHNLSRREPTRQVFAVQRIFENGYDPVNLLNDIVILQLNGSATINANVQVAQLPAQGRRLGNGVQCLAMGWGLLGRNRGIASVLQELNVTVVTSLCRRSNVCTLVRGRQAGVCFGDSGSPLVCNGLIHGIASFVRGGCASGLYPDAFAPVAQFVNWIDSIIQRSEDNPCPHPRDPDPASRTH
The assay is described as follows: Compound was tested for its inhibitory activity against human leukocyte Elastase (HLE).

`CC(C)C1N=C2CN(C3Cc4ccccc4C3)C(=O)[C@H](C(C)C)N2C1(O)C(F)(F)F` (stereo partly specified) showed an IC50 of 8.74 µM.
